Measured values as given in patent publication US20210221848A1, “POLYMYXIN DERIVATIVES AND THEIR USE IN COMBINATION THERAPY TOGETHER WITH DIFFERENT ANTIBIOTICS” (priority 2014, published 2021).
Converted amounts (≈) assume the structure as drawn. Read-outs that look alike come from different tables or passages of the source. Numbered stars: 1 amine (or outer) side, 2 acyl side, 3 side chain; on linkers, the order of the positions; unused ones are H or OH. Bridge positions count the residues as written; N and C are the ends. Square brackets hold non-standard residues; d marks the D form. Peptide text beside a SMILES is read from it. X7 = CC(C)CN([C@@H](CN)C(=O)[*:2])[*:1]; aThr = C[C@H](O)[C@H](N)C(=O)O; Dab = NCC[C@H](N)C(=O)O

Legend:
E. coli [1] = assay: MIC in the presence of a fixed concentration (2 μg/mL) of Rifampicin; type: cell-based, Escherichia coli; conditions: Rifampicin 2 μg/mL, Table 5D
K. pneumoniae [2] = assay: as above; type: cell-based, Klebsiella pneumoniae; conditions: Rifampicin 2 μg/mL, Table 5D
Procedure: (§1) The inoculum was prepared by making a direct suspension of isolated colonies (selected from an 18-24 hour Mueller-Hinton agar plate) adjusted to the 0.5 McFarland standard. […] The assays were performed in duplicate. […] In cases where the duplicate values varied by less than 2-fold, the lower of the two values is reported. If a variation of greater than 2-fold was observed, the assay was considered non-valid. Several of the compounds were subjected to multiple tests, and where this is the case, the MIC reflects the modal value obtained.

A. baumannii [3] = assay: MIC in the presence of […] of rifampicin; type: cell-based, Acinetobacter baumannii; conditions: for MIC in combination with Rifampicin, A. baumannii ATCC BAA-747: A. baumannii ATCC BAA-747, Table 5D; for MIC in combination with Rifampicin, A. baumannii NCTC 13424: A. baumannii NCTC 13424, Table 5D
Procedure: as §1

[4] = tested on: E. coli strains with elevated MICs to Polymyxin B; assay: MIC against strains with elevated MICs to Polymyxin B; type: cell-based, Escherichia coli; conditions: Table 6D; for MIC E. coli 059: strain 059, elevated MIC to Polymyxin B; for MIC E. coli 060: strain 060, elevated MIC to Polymyxin B; for MIC E. coli 061: strain 061, elevated MIC to Polymyxin B; for MIC E. coli 058: strain 058, elevated MIC to Polymyxin B
Outline: (§2)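 Polymyxin B-resistant isolates were inoculated from 0.5 McFarland suspensions of 18-24 hour Mueller-Hinton agar colonies. Testing was done twice per compound, and results disagreeing by over 2-fold were discarded as non-valid. For compounds assayed several times, the modal MIC is given.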

[5] = tested on: K. pneumoniae strains with elevated MICs to Polymyxin B; assay: as above; type: cell-based, Klebsiella pneumoniae; conditions: Table 6D; for MIC K. pneumoniae 062: strain 062, elevated MIC to Polymyxin B; for MIC K. pneumoniae 063: strain 063, elevated MIC to Polymyxin B; for MIC K. pneumoniae 064: strain 064, elevated MIC to Polymyxin B; for MIC K. pneumoniae 655: strain 655, elevated MIC to Polymyxin B
Outline: as §2

[6] = tested on: P. aeruginosa strains with elevated MICs to Polymyxin B; assay: as above; type: cell-based, Pseudomonas aeruginosa; conditions: Table 6D; for MIC P. aeruginosa 066: strain 066, elevated MIC to Polymyxin B; for MIC P. aeruginosa 067: strain 067, elevated MIC to Polymyxin B
Outline: as §2

[7] = tested on: A. baumanii strains with elevated MICs to Polymyxin B; assay: as above; type: cell-based, Acinetobacter baumannii; conditions: Table 6D; for MIC A. baumannii 053: strain 053, elevated MIC to Polymyxin B; for MIC A. baumannii 056: strain 056, elevated MIC to Polymyxin B; for MIC A. baumannii 068: strain 068, elevated MIC to Polymyxin B; for MIC A. baumannii 070: strain 070, elevated MIC to Polymyxin B
Outline: as §2

E. coli [8] = tested on: E. coli
K. pneumoniae [9] = tested on: K. pneumoniae
A. baumannii [10] = tested on: A. baumannii
HK-2 cell line = assay: In vitro renal cell toxicity assay (resazurin reduction)
Procedure: MICs were determined as described herein. HK-2 cell IC50 values were determined as described herein. Values are reported relative to Polymyxin B.

[11] = absence of a second agent, Table 6B

Compound	MIC in combination with Rifampicin, E. coli ATCC 25922 (E. coli [1]) [micrograms/mL]	MIC in combination with Rifampicin, K. pneumoniae ATCC 4352 (K. pneumoniae [2]) [micrograms/mL]	MIC in combination with Rifampicin, K. pneumoniae ATCC BAA-2146 (K. pneumoniae [2]) [micrograms/mL]	MIC in combination with Rifampicin, A. baumannii ATCC BAA-747 (A. baumannii [3]) [micrograms/mL]	MIC in combination with Rifampicin, A. baumannii NCTC 13424 (A. baumannii [3]) [micrograms/mL]	MIC E. coli 059 [4] [micrograms/mL]	MIC E. coli 060 [4] [micrograms/mL]	MIC E. coli 061 [4] [micrograms/mL]	MIC K. pneumoniae 062 [5] [micrograms/mL]	MIC K. pneumoniae 063 [5] [micrograms/mL]	MIC K. pneumoniae 064 [5] [micrograms/mL]	MIC K. pneumoniae 655 [5] [micrograms/mL]	MIC, E. coli ATCC 25922 (E. coli [8]; [11]) [micrograms/mL]	MIC, E. coli NCTC 13441 (E. coli [8]; [11]) [micrograms/mL]	MIC, K. pneumoniae ATCC 4352 (K. pneumoniae [9]; [11]) [micrograms/mL]	MIC, K. pneumoniae ATCC BAA-2146 (K. pneumoniae [9]; [11]) [micrograms/mL]	MIC, P. aeruginosa ATCC 27853 (P. aeruginosa; [11]) [micrograms/mL]	MIC, P. aeruginosa CCUG 59347 (P. aeruginosa; [11]) [micrograms/mL]	MIC, A. baumannii ATCC BAA-747 (A. baumannii [10]; [11]) [micrograms/mL]	MIC, A. baumannii NCTC 13424 (A. baumannii [10]; [11]) [micrograms/mL]	other results
2-(2-aminoethyl)- undecanoyl polymyxin B nonapeptide [Example D26]	0.25	0.5	4	2	1	0.5	2	4	2	4	0.5	4	0.5	2	1	2	0.5	0.5	0.5	2	MIC in combination with Rifampicin, E. coli NCTC 13441 (E. coli [1]): 1 micrograms/mL; MIC P. aeruginosa 066 [6]: 1 micrograms/mL; MIC P. aeruginosa 067 [6]: 8 micrograms/mL; MIC A. baumannii 053 [7]: 8 micrograms/mL; MIC A. baumannii 056 [7]: 4 micrograms/mL; MIC A. baumannii 068 [7]: 2 micrograms/mL; MIC A. baumannii 070 [7]: 2 micrograms/mL
2-(2-aminoethyl)- undecanoyl polymyxin B nonapeptide [Example D27]	0.125	0.5	4	1	1	2	4	16	16	64	16	64	0.125	0.06	0.25	0.5	0.5	0.5	0.25	1	MIC E. coli 058 [4]: 2 micrograms/mL; MIC P. aeruginosa 066 [6]: 16 micrograms/mL; MIC P. aeruginosa 067 [6]: >64 micrograms/mL; MIC A. baumannii 053 [7]: 64 micrograms/mL; MIC A. baumannii 056 [7]: 32 micrograms/mL; MIC A. baumannii 068 [7]: 2 micrograms/mL; MIC A. baumannii 070 [7]: 4 micrograms/mL
2-aminomethyl- 4-methyl pentanoyl polymyxin E nonapeptide [Example D53]																					HK-2 IC50 rel to PMB* (HK-2 cell line): 18.2; MIC, E. coli ATCC 25922 (E. coli [8]; sole activity, Table 6C): 1 micrograms/mL; MIC, E. coli NCTC 13441 (E. coli [8]; sole activity, Table 6C): 1 micrograms/mL; MIC, K. pneumoniae ATCC 4352 (K. pneumoniae [9]; sole activity, Table 6C): 0.25 micrograms/mL; MIC, K. pneumoniae ATCC BAA-2146 (K. pneumoniae [9]; sole activity, Table 6C): 1 micrograms/mL; MIC, P. aeruginosa ATCC 27853 (P. aeruginosa; sole activity, Table 6C): 0.5 micrograms/mL; MIC, P. aeruginosa CCUG 59347 (P. aeruginosa; sole activity, Table 6C): 1 micrograms/mL; MIC, A. baumannii ATCC BAA-747 (A. baumannii [10]; sole activity, Table 6C): 1 micrograms/mL; MIC, A. baumannii NCTC 13424 (A. baumannii [10]; sole activity, Table 6C): 2 micrograms/mL
CC(C)CC1CNCC1C(=O)N[C@H](C(=O)N[C@@H](CCN)C(=O)N[C@H]1CCNC(=O)[C@H]([C@@H](C)O)NC(=O)[C@H](CCN)NC(=O)[C@H](CCN)NC(=O)[C@H](CC(C)C)NC(=O)[C@@H](Cc2ccccc2)NC(=O)[C@H](CCN)NC1=O)[C@H](C)O (single isomer, unassigned) [Example D39, trans-4-(2-methylpropyl) pyrrolidine-3-carbonyl polymyxin B nonapeptide]																					HK-2 IC50 rel to PMB (HK-2 cell line): 5.4
CC(C)CN[C@@H](CN)C(=O)N[C@H](C(=O)N[C@@H](CCN)C(=O)N[C@H]1CCNC(=O)[C@H]([C@@H](C)O)NC(=O)[C@H](CCN)NC(=O)[C@H](CCN)NC(=O)[C@H](CC(C)C)NC(=O)[C@@H](Cc2ccccc2)NC(=O)[C@H](CCN)NC1=O)[C@H](C)O [Example D51, (S)-2-(2-methylpropylamino) 3-aminopropanoyl polymyxin B nonapeptide] (H-[X7][aThr][Dab][Dab][Dab][dF]L[Dab][Dab]T; lactam 4-C)																					HK-2 IC50 rel to PMB (HK-2 cell line): 34; MIC (E. coli [8]): 0.5 µg/mL (≈ 0.452 µM); MIC (A. baumannii [10]): 1 µg/mL (≈ 0.905 µM)
(S)-1-(2- methylpropyl)- piperazine-2- carbonyl polymyxin E nonapeptide [Example D56]																					HK-2 IC50 rel to PMB* (HK-2 cell line): 22; MIC, E. coli ATCC 25922 (E. coli [8]; sole activity, Table 6C): 0.25 micrograms/mL; MIC, E. coli NCTC 13441 (E. coli [8]; sole activity, Table 6C): 0.25 micrograms/mL; MIC, K. pneumoniae ATCC 4352 (K. pneumoniae [9]; sole activity, Table 6C): 0.125 micrograms/mL; MIC, K. pneumoniae ATCC BAA-2146 (K. pneumoniae [9]; sole activity, Table 6C): 0.25 micrograms/mL; MIC, P. aeruginosa ATCC 27853 (P. aeruginosa; sole activity, Table 6C): 0.5 micrograms/mL; MIC, P. aeruginosa CCUG 59347 (P. aeruginosa; sole activity, Table 6C): 1 micrograms/mL; MIC, A. baumannii ATCC BAA-747 (A. baumannii [10]; sole activity, Table 6C): 0.5 micrograms/mL; MIC, A. baumannii NCTC 13424 (A. baumannii [10]; sole activity, Table 6C): 0.5 micrograms/mL
(S)-1-octyl-piperazine- 2-carbonyl polymyxin B nonapeptide [Example D28]	1	0.5	2	1	1	0.5	2	4	8	16	2	16	0.125	0.125	0.25	0.5	0.5	1	0.25	1	MIC in combination with Rifampicin, E. coli NCTC 13441 (E. coli [1]): 0.5 micrograms/mL; MIC E. coli 058 [4]: 0.5 micrograms/mL; MIC P. aeruginosa 065 ([6]; strain 065, elevated MIC to Polymyxin B): 0.5 micrograms/mL; MIC P. aeruginosa 066 [6]: 4 micrograms/mL; MIC P. aeruginosa 067 [6]: 32 micrograms/mL; MIC A. baumannii 053 [7]: 32 micrograms/mL; MIC A. baumannii 056 [7]: 16 micrograms/mL; MIC A. baumannii 068 [7]: 4 micrograms/mL; MIC A. baumannii 070 [7]: 4 micrograms/mL
trans-4-(2- methylpropyl) pyrrolidine-3-carbonyl polymyxin B nonapeptide [Example D38]													8	8	4	8	1	2	>8	2	HK-2 IC50 rel to PMB (HK-2 cell line): 6.3
